Among the data in patent US10106557B2, “Preparation method for benzoxazoleoxazine ketone compound and intermediate and crystal form thereof” (NORTH CHINA PHARMACEUTICAL NEW DRUG R & D CO., LTD., priority 2014, dated 2018) are Ki values, retold here.

One may read the Ki as a measure of affinity in units of concentration, obtained from inhibition or displacement.

Molecules are shown by their SMILES. Where only a bound is given, the exact number is not on record here.

What all share (assay type): biochemical
One assay concerns the target human thrombin (Homo sapiens (Human), UniProt P00734). Kind of assay: Human thrombin assay. As to conditions: substrate S-2238; Ki from IC50 by Cheng-Prusoff. As for the experimental part: (§1) The inhibitory ability of the compounds to be tested on Xa factor or other enzymes, such as thrombin or trypsin, in human or rats were determined by IC50 values, wherein the IC50 value was associated with the inhibition constant Ki. The purified enzyme was used in the chromogenic determination. The initial rate of hydrolysis of the chromogenic substrate was determined by the variation of absorbance at 405 nm in the linear part on time (usually 2 to 10 minutes after the addition of the substrate) at 37° C. by using FlexStation III (USA Molecular Instruments). By plotting a curve regarding the relative velocity of the hydrolysis (compared to the control group which was free of inhibition) on the logarithm of the concentration of the compounds and linear regression calculation, the concentration of the inhibitor leading to a 50% reduction of the rate of the hydrolysis of the substrate was determined. The enzyme inhibition constant (Ki) was calculated according to Cheng-Prusoff equation: Ki=IC50/(1+[S]/Km), where [S] was the substrate concentration and Km was the meter-Mann's constant determined by the double reciprocal mapping method. The IC50 values of the compounds were obtained by GraphPad Prism software. The curve is fitted by using the “shaped dose effect (variable slope)”.
The inhibitory activity on human thrombin was determined by using a buffer (10 mM HEPES buffer, pH 7.4, 2 mM CaCl2). Appropriate wells in the Greiner 384 microtiter plate were used to determine IC50. A buffer contained 50 μL human thrombin (Sigma; T8885), the final concentration of which was 0.05 NIH unit/mL. A buffer containing 2 μL 2% (V/V) DMSO (control group which was free of inhibition) or various concentration of the compound to be tested was diluted in the buffer containing 2% (V/V) DMSO. A buffer containing 48 μL substrate S-2238 (Chromogenix; Chemical formula: H-D-Phe-Pip-Arg-pNA.2HCl) was added, the final concentration was 30 μM. In this assay, the compound to be tested and the enzyme were pre-incubated for 10 minutes, the substrate was added to give a final volume of 100 μL to start the assay.

In assay [1] the target is rat coagulation factor Xa (Rattus norvegicus (Rat), UniProt Q63207). Kind of assay: Rat coagulation factor Xa chromogenic assay. As to conditions: purified enzyme, substrate S-2222, 37° C.; Ki from IC50 by Cheng-Prusoff; read-out: rfXa Ki. As for the experimental part: (§2) The inhibitory ability of the compounds to be tested on Xa factor or other enzymes, such as thrombin or trypsin, in human or rats were determined by IC50 values, wherein the IC50 value was associated with the inhibition constant Ki. The purified enzyme was used in the chromogenic determination. […] By plotting a curve regarding the relative velocity of the hydrolysis (compared to the control group which was free of inhibition) on the logarithm of the concentration of the compounds and linear regression calculation, the concentration of the inhibitor leading to a 50% reduction of the rate of the hydrolysis of the substrate was determined. The enzyme inhibition constant (Ki) was calculated according to Cheng-Prusoff equation: Ki=IC50/(1+[S]/Km), where [S] was the substrate concentration and Km was the meter-Mann's constant determined by the double reciprocal mapping method. The IC50 values of the compounds were obtained by GraphPad Prism software. The curve is fitted by using the “shaped dose effect (variable slope)”.
Sequence of rat coagulation factor Xa (Q63207 232-482): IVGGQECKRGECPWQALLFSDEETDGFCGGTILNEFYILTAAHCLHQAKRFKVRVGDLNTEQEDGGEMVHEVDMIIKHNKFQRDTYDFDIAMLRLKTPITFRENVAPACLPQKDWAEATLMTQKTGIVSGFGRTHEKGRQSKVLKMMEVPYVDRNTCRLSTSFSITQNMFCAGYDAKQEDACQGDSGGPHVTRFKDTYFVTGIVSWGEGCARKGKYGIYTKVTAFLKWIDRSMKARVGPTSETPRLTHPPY
Sequence of rat coagulation factor Xa (Q63207 41-180): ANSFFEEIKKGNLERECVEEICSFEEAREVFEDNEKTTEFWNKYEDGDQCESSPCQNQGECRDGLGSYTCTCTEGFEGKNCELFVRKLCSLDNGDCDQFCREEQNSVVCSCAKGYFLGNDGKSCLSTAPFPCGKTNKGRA
The inhibitory activity on coagulation factor Xa activity in human or rats was measured by using Tris-HCl buffer (50 mM, pH 8.3, 150 mM NaCl).

For assay [2], the target named is human coagulation factor Xa (Homo sapiens (Human), UniProt P00742). Kind of assay: Human coagulation factor Xa chromogenic assay. As to conditions: purified enzyme, substrate S-2222, 37° C.; Ki from IC50 by Cheng-Prusoff; read-out: hfXa Ki. As for the experimental part:
as §1
The inhibitory activity on coagulation factor Xa activity in human or rats was measured by using Tris-HCl buffer (50 mM, pH 8.3, 150 mM NaCl). […] The buffer containing 2 μL 2% (V/V) DMSO (control group which was free of inhibition) or various concentrations of the compounds to be tested were diluted in the buffer containing 2% (V/V) DMSO, and 48 μL buffer of the supporting base S-2222 (Chromogenix; chemical formula: Bz-IIe-Glu(γ-OR)-Gly-Arg-pNA.HCl R═H (50%), wherein R═CH3 (50%)) was added, the final concentration was 0.172 mM.

For the next assay, the target named is human trypsin. Nature of the assay: Human trypsin assay. As to conditions: substrate S-2222; Ki from IC50 by Cheng-Prusoff. How it is done:
as §1
The inhibitory activity on human trypsin was determined by using buffer (50 mM Tris, pH 8.2, and 20 mM CaCl2). Appropriate wells in the Greiner 384 microtiter plate were used to determine IC50. A buffer containing 50 μL human trypsin (Sigma; T6424), the final concentration was 0.39 BAEE unit/mL, a buffer containing 2 μL 2% (V/V) DMSO (control group which was free of inhibition) or various concentration of the compound to be tested was diluted in the buffer containing 2% (V/V) DMSO. A buffer containing substrate S-2222 (Chromogenix), the final concentration was 30 μM. In this assay, the compound to be tested and the enzyme were pre-incubated for 10 minutes and then 48 μL substrate was added to give a final volume of 100 μL to start the assay.

The next assay deals with prothrombinase (Homo sapiens (Human), UniProt P00742). Nature of the assay: Prothrombin assay (prothrombinase, thrombin production). As to conditions: human factor Xa, human blood platelets, substrate S-2238. As for the experimental part:
as §2
The activity of the compound to be tested against prothrombinase was determined by the production of thrombin. In summary, 12.5 μL human factor Xa was incubated in 10 mM HEPES buffer and pH 7.4, 2 mM CaCl2, the final concentration was 0.5 nM, and 12.5 μL human blood platelets (1×10^7 mL^−1) was added at 37° C. After 10 mins, 25 μL prothrombin was added to initiate the reaction, the final concentration was 0.5 μM, a buffer containing 2 μL 2% (V/V) DMSO (control group which was free of inhibition) or various concentration of the compound was diluted in the buffer containing 2% (V/V) DMSO.

Sequence of human coagulation factor Xa (P00742 235-488): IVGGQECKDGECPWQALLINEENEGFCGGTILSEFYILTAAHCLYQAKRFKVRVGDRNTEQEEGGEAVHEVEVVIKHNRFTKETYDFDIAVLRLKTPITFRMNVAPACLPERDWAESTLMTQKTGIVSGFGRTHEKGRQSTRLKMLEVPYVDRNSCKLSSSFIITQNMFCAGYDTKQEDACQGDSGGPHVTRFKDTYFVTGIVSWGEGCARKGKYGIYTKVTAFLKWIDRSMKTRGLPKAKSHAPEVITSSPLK
Sequence of human coagulation factor Xa (P00742 41-179): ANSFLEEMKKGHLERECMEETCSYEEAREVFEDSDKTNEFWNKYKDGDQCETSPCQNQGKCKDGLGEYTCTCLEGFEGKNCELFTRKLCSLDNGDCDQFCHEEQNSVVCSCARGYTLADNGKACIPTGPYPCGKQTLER
Sequence of prothrombinase (P00742 235-488): as the sequence (P00742 235-488) above
Sequence of prothrombinase (P00742 41-179): as the sequence (P00742 41-179) above
Sequence of prothrombinase (P12259 29-737 partner): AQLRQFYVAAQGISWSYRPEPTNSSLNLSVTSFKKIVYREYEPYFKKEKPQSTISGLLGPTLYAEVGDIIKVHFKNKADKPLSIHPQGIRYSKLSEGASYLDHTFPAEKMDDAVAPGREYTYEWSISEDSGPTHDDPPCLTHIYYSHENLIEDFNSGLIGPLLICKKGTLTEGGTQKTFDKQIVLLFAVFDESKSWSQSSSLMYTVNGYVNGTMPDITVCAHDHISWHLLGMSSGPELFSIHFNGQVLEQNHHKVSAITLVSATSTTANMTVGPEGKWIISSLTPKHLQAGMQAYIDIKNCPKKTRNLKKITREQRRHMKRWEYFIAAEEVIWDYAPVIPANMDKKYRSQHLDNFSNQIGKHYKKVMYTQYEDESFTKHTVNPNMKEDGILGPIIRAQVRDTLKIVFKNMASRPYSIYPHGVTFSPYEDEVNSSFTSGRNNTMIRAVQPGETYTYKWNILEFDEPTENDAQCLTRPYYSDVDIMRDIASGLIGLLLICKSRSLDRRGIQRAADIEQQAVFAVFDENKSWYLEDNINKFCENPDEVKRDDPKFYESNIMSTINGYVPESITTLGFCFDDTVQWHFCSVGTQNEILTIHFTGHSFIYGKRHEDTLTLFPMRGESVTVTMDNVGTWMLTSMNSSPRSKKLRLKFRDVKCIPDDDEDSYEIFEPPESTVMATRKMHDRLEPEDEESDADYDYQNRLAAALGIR
Sequence of prothrombinase (P12259 1574-2224 partner): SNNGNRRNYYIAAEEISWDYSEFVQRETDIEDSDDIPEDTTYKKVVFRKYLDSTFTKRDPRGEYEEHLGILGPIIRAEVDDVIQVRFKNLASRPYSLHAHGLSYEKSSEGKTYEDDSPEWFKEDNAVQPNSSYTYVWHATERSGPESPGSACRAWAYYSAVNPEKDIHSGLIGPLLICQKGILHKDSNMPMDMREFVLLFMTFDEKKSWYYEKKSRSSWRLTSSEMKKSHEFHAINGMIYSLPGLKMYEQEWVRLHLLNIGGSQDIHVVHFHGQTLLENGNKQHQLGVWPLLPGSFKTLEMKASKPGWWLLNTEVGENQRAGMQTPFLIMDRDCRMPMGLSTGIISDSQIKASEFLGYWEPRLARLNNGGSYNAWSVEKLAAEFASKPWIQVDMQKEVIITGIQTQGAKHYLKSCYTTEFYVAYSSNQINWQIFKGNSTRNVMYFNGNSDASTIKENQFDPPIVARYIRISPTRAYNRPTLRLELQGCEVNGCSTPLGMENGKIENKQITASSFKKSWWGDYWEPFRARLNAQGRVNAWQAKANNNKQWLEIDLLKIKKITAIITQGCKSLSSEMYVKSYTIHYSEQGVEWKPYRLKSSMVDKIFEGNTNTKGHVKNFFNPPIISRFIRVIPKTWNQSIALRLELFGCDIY

On to `O=C(NC[C@@H]1OC(=O)N2c3ccc(-n4ccccc4=O)cc3OC[C@@H]12)c1ccc(Cl)s1` [Compound 8], for which the inhibitory constant (Ki) on human thrombin is above 1000 nM; in assay [1], 3.17 nM; in assay [2], 1.92 nM; at human trypsin, above 20 µM; on prothrombinase, 0.9 nM.
As for `O=C(NC[C@@H]1OC(=O)N2c3ccc(N4CCCNC4=O)cc3OC[C@@H]12)c1ccc(Cl)s1` [Compound 7], the Ki is above 1000 nM on human thrombin; 16.5 nM in assay [1]; 4.13 nM in assay [2]; above 20 µM on human trypsin; 4.41 nM on prothrombinase.
With `O=C(NC[C@@H]1OC(=O)N2c3ccc(N4CCCCC4=O)cc3OC[C@@H]12)c1ccc(Cl)s1` [Compound 2], the results for the inhibition constant (Ki) (at human thrombin; in assay [1]; at human trypsin) were above 1000 nM, 4.45 nM and above 20 µM, respectively.
In the case of `O=C(NC[C@@H]1OC(=O)N2c3ccc(N4CCOCC4=O)cc3OC[C@@H]12)c1ccc(Cl)s1` [Compound 1, 5-chloro-N-(((3S,3aS)-1-one-7-(3-ketomorpholine)-1,3,3a,4-tetrahydrobenzo[b]oxazolo[3,4-d][1,4]oxazin-3-yl)methyl)thiophene-2-carboxamide], the inhibition constant Ki was above 1000 nM at human thrombin; 2.87 nM in assay [1]; 1.01 nM in assay [2]; above 20 µM at human trypsin; 0.47 nM at prothrombinase.
For the molecule `O=C(NC[C@@H]1OC(=O)N2c3ccc(-n4cncn4)cc3OC[C@@H]12)c1ccc(Cl)s1` [Compound 34], the inhibition constant (Ki) in assay [2] turned out to be 106 nM.
Turning to `COC[C@H]1CCCN1c1ccc2c(c1)OC[C@H]1[C@H](CNC(=O)c3ccc(Cl)s3)OC(=O)N21` [Compound 30], the Ki at human thrombin is above 1000 nM; in assay [1], 21.5 nM; in assay [2] it was 9.71 nM; at human trypsin, above 20 µM; at prothrombinase, 16.2 nM.
